Measured values as given in publication PMC3057164, “Caffeoylquinic Acids Are Major Constituents with Potent Anti-Influenza Effects in Brazilian Green Propolis Water Extract” (Evidence-based Complementary and Alternative Medicine : eCAM, 2011).
Read-outs that look alike come from different tables or passages of the source.

Experiments:
[1] = tested on: influenza A virus strain A/WSN/33 (H1N1); assay: microbe, parasite or virus in culture; assay type: cell-based; conditions: for EC50: Influenza A virus, MDCK, 48 h
MDCK cells = assay: Cytotoxicity assay (WST-8) with no viral infection; conditions: 300 μg/mL, uninfected MDCK cells, Figure 3
influenza virus = assay type: cell-based; conditions: 5 μg/mL, influenza virus-infected MDCK cells, data not shown

Structure (SMILES)	Effect on cell survival rate of virus-infected cells (effective / ineffective) [1]	EC50 [1]	further results
O=C(/C=C/c1ccc(O)c(O)c1)O[C@@H]1C[C@](O)(C(=O)O)C[C@@H](OC(=O)/C=C/c2ccc(O)c(O)c2)[C@H]1OC(=O)/C=C/c1ccc(O)c(O)c1 [3,4,5-Tricaffeoylquinic acid, 3,4,5-tricaffeoylquinic acid]	effective	115 µM	Cell survival rate of infected cells at 300 μg/mL [1]: dropped to nearly zero; Effect on cell survival of infected cells at 100 μg/mL [1]: effective
O=C(/C=C/c1ccc(O)c(O)c1)O[C@@H]1[C@H](O)C[C@@](O)(C(=O)O)C[C@H]1OC(=O)/C=C/c1ccc(O)c(O)c1 [3,4-Dicaffeoylquinic acid]	effective	81.1 ± 2.9 µM	EC50 ([1]; read-out: EC50 value on the cell survival): 41.9 µg/mL
O=C(/C=C/c1ccc(O)c(O)c1)O[C@@H]1C[C@](O)(C(=O)O)C[C@@H](OC(=O)/C=C/c2ccc(O)c(O)c2)[C@H]1O [3,5-Dicaffeoylquinic acid, 3,5-dicaffeoylquinic acid]	effective	208 µM	
O=C(/C=C/c1ccc(O)c(O)c1)O[C@H]1[C@H](O)C[C@](O)(C(=O)O)C[C@H]1OC(=O)/C=C/c1ccc(O)c(O)c1 [4,5-Dicaffeoylquinic acid, 4,5-dicaffeoylquinic acid]	effective	281 µM	
O=C(O)/C=C/c1ccc(O)c(O)c1 [Caffeic acid, caffeic acid]	effective	191 µM	Cell survival rate of infected cells at 300 μg/mL [1]: dropped to nearly zero; Effect on cell survival of infected cells at 100 μg/mL [1]: effective; Cell toxicity (MDCK cells): exhibited cell toxicities
O=C(/C=C/c1ccc(O)c(O)c1)O[C@@H]1C[C@](O)(C(=O)O)C[C@@H](O)[C@H]1O [Chlorogenic acid]	effective	342 µM	Cell survival rate of infected cells at 300 μg/mL [1]: dropped to nearly zero; Effect on cell survival of infected cells at 100 μg/mL [1]: effective; Cell toxicity (MDCK cells): exhibited cell toxicities
O=C(O)[C@]1(O)C[C@@H](O)[C@@H](O)[C@H](O)C1 [Quinic acid, quinic acid]	ineffective	> 1560 µM	
CC(C)=CCc1cc(/C=C/C(=O)O)cc(CC=C(C)C)c1O [artepillin C]	did not have any cell surviving activity		
CC(C)=CCc1cc(/C=C/C(=O)O)ccc1O [drupanin]	did not have any cell surviving activity		
COc1ccc(-c2oc3cc(O)cc(O)c3c(=O)c2O)cc1 [kemferide]	did not have any cell surviving activity		
O=C(O)/C=C/c1ccc(O)cc1 [p-coumaric acid]	did not have any cell surviving activity		
NC(=O)c1ncn([C@@H]2O[C@H](CO)[C@@H](O)[C@H]2O)n1 [ribavirin]			Quantity of mRNA for HA relative to mRNA for GAPDH (influenza virus): less than 10%
